Results published in the NIST ThermoML archive (doi:10.1016/j.jct.2017.07.034).
Numbers after ± are expanded uncertainties.

Tests used:
[1] = mn = molality of the nth substance listed, in mol/kg; details: 99.6 kPa, Liquid, Vibrating tube method
[2] = 99.6 kPa, Liquid, Vibrating tube method

CCN1C(=O)N(C)[C@@H]2[C@H]1N(C)C(=O)N2CC + O
mass density [kg/m3], [1]
Details | m1 = 0.01976 | m1 = 0.04272 | m1 = 0.06009 | m1 = 0.07765 | m1 = 0.1094 | m1 = 0.136 | m1 = 0.155 | m1 = 0.1749 | m1 = 0.1935
278.15 K | 1000.71 ± 0.11 | 1001.58 ± 0.11 | 1002.23 ± 0.11 | 1002.88 ± 0.11 | 1004.07 ± 0.11 | 1005.05 ± 0.11 | 1005.75 ± 0.11 | 1006.48 ± 0.11 | 1007.16 ± 0.11
288.15 K | 999.821 ± 0.11 | 1000.65 ± 0.11 | 1001.28 ± 0.11 | 1001.91 ± 0.11 | 1003.04 ± 0.11 | 1003.98 ± 0.11 | 1004.64 ± 0.11 | 1005.34 ± 0.11 | 1005.98 ± 0.11
298.15 K | 997.745 ± 0.11 | 998.551 ± 0.11 | 999.157 ± 0.11 | 999.764 ± 0.11 | 1000.85 ± 0.11 | 1001.76 ± 0.11 | 1002.4 ± 0.11 | 1003.07 ± 0.11 | 1003.68 ± 0.11
308.15 K | 994.713 ± 0.11 | 995.494 ± 0.11 | 996.08 ± 0.11 | 996.672 ± 0.11 | 997.724 ± 0.11 | 998.597 ± 0.11 | 999.219 ± 0.11 | 999.861 ± 0.11 | 1000.46 ± 0.11
318.15 K | 990.876 ± 0.11 | 991.636 ± 0.11 | 992.207 ± 0.11 | 992.779 ± 0.11 | 993.803 ± 0.11 | 994.654 ± 0.11 | 995.256 ± 0.11 | 995.879 ± 0.11 | 996.461 ± 0.11

CCN1C(=O)N(C)[C@@H]2[C@H]1N(C)C(=O)N2CC + [2H]O[2H]
mass density [kg/m3], [1]
Details | m1 = 0.02067 | m1 = 0.03855 | m1 = 0.06093 | m1 = 0.08301 | m1 = 0.09921 | m1 = 0.1206 | m1 = 0.1402 | m1 = 0.159 | m1 = 0.1743
278.15 K | 1105.97 ± 0.12 | 1106.36 ± 0.12 | 1106.84 ± 0.12 | 1107.32 ± 0.12 | 1107.67 ± 0.12 | 1108.14 ± 0.12 | 1108.56 ± 0.12 | 1108.97 ± 0.12 | 1109.3 ± 0.12
288.15 K | 1106.17 ± 0.12 | 1106.51 ± 0.12 | 1106.94 ± 0.12 | 1107.36 ± 0.12 | 1107.67 ± 0.12 | 1108.07 ± 0.12 | 1108.44 ± 0.12 | 1108.8 ± 0.12 | 1109.08 ± 0.12
298.15 K | 1104.7 ± 0.12 | 1105 ± 0.12 | 1105.38 ± 0.12 | 1105.75 ± 0.12 | 1106.03 ± 0.12 | 1106.39 ± 0.12 | 1106.71 ± 0.12 | 1107.03 ± 0.12 | 1107.28 ± 0.12
308.15 K | 1101.97 ± 0.12 | 1102.24 ± 0.12 | 1102.58 ± 0.12 | 1102.91 ± 0.12 | 1103.16 ± 0.12 | 1103.47 ± 0.12 | 1103.76 ± 0.12 | 1104.04 ± 0.12 | 1104.28 ± 0.12
318.15 K | 1098.15 ± 0.12 | 1098.4 ± 0.12 | 1098.71 ± 0.12 | 1099.01 ± 0.12 | 1099.23 ± 0.12 | 1099.52 ± 0.12 | 1099.78 ± 0.12 | 1100.04 ± 0.12 | 1100.24 ± 0.12

[2H]O[2H] [water-d2]
[2]
Details | mass density [kg/m3]
278.15 K | 1105.52 ± 0.12
288.15 K | 1105.78 ± 0.12
298.15 K | 1104.34 ± 0.12
308.15 K | 1101.65 ± 0.12
318.15 K | 1097.87 ± 0.12

[2H]O[2H] [water-d2] + CCN1C(=O)N(C)[C@@H]2[C@H]1N(C)C(=O)N2CC
[1], m2 = 0
Details | mass density [kg/m3]
278.15 K | 1105.52 ± 0.12
288.15 K | 1105.78 ± 0.12
298.15 K | 1104.34 ± 0.12
308.15 K | 1101.65 ± 0.12
318.15 K | 1097.87 ± 0.12

O [water] + CCN1C(=O)N(C)[C@@H]2[C@H]1N(C)C(=O)N2CC
Details | mass density [kg/m3]
[1], 278.15 K, m2 = 0 | 999.964 ± 0.11
